Laboratory results from US20250282799A1, “SUBSTITUTED PYRIDO[4,3-d]PYRIMIDINES AS KRAS MODULATORS” (Alterome Therapeutics, Inc., priority 2023, published 2025).
pIC50: −log10 of the molar value.

test system: KRAS G12V dependent lung adenocarcinoma cell line, NCI-H441; experiment: Cellular pERK (Thr202/Tyr204) FRET/HTRF assay; assay type: cell-based; settings: Homo sapiens, NCI-H441, cellular pERK (Thr202/Tyr204) HTRF, NCI-H441 cells
Procedure, shortened: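 Phospho-ERK1/2 (Thr202/Tyr204) quantified by two-antibody HTRF in lysed NCI-H441 cells. Cells seeded overnight, treated with test compounds for 1 hr at 37 °C against DMSO control, then lysed and detected at room temperature; IC50 obtained by curve fitting.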

Compound | pIC50
C#Cc1c(F)ccc2cc(N)cc(-c3ncc4c(N5CCOC[C@H]6[C@H](F)[C@H]65)nc(OC[C@]56C[C@@H](F)CN5CCC6=C)nc4c3F)c12 [Example 364, 5-ethynyl-6-fluoro-4-(8-fluoro-2-(((6R,7aR)-6-fluoro-1-methylenetetrahydro-1H-pyrrolizin-7a(5H)-yl)methoxy)-4-((1S,7S,8S)-8-fluoro-5-oxa-2-azabicyclo[5.1.0]octan-2-yl)pyrido[4,3-d]pyrimidin-7-yl)naphthalen-2-amine] | > 7.30
[2H]C([2H])(Oc1nc(N2CCOC[C@H]3[C@H](Cl)[C@H]32)c2cnc(-c3cccc4ccc(Cl)c(C#C)c34)c(F)c2n1)[C@@]12CCCN1C[C@H](F)C2 [Example 320, (1S,7S,8S)-8-chloro-2-(7-(7-chloro-8-ethynylnaphthalen-1-yl)-8-fluoro-2-(((2R,7aS)-2-fluorotetrahydro-1H-pyrrolizin-7a(5H)-yl)methoxy-d2)pyrido[4,3-d]pyrimidin-4-yl)-5-oxa-2-azabicyclo[5.1.0]octane] | > 7.30
[2H]C([2H])(Oc1nc(N2CCC(=O)C[C@H]3[C@@H](F)[C@H]32)c2cnc(-c3cc(N)cc4cc(F)c(F)c(C#C)c34)c(F)c2n1)[C@@]12CCCN1C[C@H](F)C2 [Example 197, (1S,7R,8R)-2-(7-(3-amino-8-ethynyl-6,7-difluoronaphthalen-1-yl)-8-fluoro-2-(((2R,7aS)-2-fluorotetrahydro-1H-pyrrolizin-7a(5H)-yl)methoxy-d2)pyrido[4,3-d]pyrimidin-4-yl)-8-fluoro-2-azabicyclo[5.1.0]octan-5-one] | 6.30 to 7.30
[2H]C([2H])(Oc1nc(N2CCCC[C@H]3[C@H](F)[C@H]32)c2cnc(-c3cncc4ccc(F)c(OC)c34)c(F)c2n1)[C@@]12CCCN1C[C@H](F)C2 [Example 98, 8-Fluoro-7-(6-fluoro-5-methoxyisoquinolin-4-yl)-4-((1S,7R,8S)-8-fluoro-2-azabicyclo[5.1.0]octan-2-yl)-2-(((2R,7aS)-2-fluorotetrahydro-1H-pyrrolizin-7a(5H)-yl)methoxy-d2)pyrido[4,3-d]pyrimidine] | > 7.30
C#Cc1c(F)ccc2cc(N)cc(-c3ncc4c(N5CCOC[C@H]6[C@H](F)[C@H]65)nc(OC[C@@]56CCCN5C[C@@]5(C[C@@H]5F)C6)nc4c3F)c12 (single isomer, unassigned) [Example 252] | > 7.30
[2H]C([2H])(Oc1nc(N2CCOC[C@H]3[C@H](F)[C@H]32)c2cnc(-c3cc(N)cc4ccc(F)c(C#C)c34)c(F)c2n1)[C@@]12CCCN1C[C@@H](CF)C2 (single isomer, unassigned) [Example 265] | > 7.30
[2H]C([2H])(Oc1nc(N2CCOC[C@H]3[C@H](F)[C@H]32)c2cc(Cl)c(-c3nc(N)cc(C)c3C(F)(F)F)c(F)c2n1)[C@@]12CCCN1C[C@H](F)C2 [Example 159, 6-(6-Chloro-8-fluoro-4-((1S,7S,8S)-8-fluoro-5-oxa-2-azabicyclo[5.1.0]octan-2-yl)-2-(((2R,7aS)-2-fluorotetrahydro-1H-pyrrolizin-7a(5H)-yl)methoxy-d2)quinazolin-7-yl)-4-methyl-5-(trifluoromethyl)pyridin-2-amine] | > 7.30
[2H]C([2H])(Oc1nc(N2CCOC[C@H]3[C@H](F)[C@H]32)c2cnc(-c3cc(N)cc(Cl)c3C(F)(F)F)c(F)c2n1)[C@@]12CCCN1C[C@H](F)C2 [Example 272, 3-chloro-5-(8-fluoro-4-((1S,7S,8S)-8-fluoro-5-oxa-2-azabicyclo[5.1.0]octan-2-yl)-2-(((2R,7aS)-2-fluorotetrahydro-1H-pyrrolizin-7a(5H)-yl)methoxy-d2)pyrido[4,3-d]pyrimidin-7-yl)-4-(trifluoromethyl)aniline] | > 7.30

Further lines, results first:

pIC50 | Compound
> 7.30 | [2H]C1([2H])OCCN(c2nc(OC([2H])([2H])[C@@]34CCCN3C[C@H](F)C4)nc3c(F)c(-c4cccc5ccc(F)c(C#C)c45)ncc23)[C@@H]2[C@@H](F)[C@@H]21 [Example 101, (1S,7S,8S)-2-(7-(8-ethynyl-7-fluoronaphthalen-1-yl)-8-fluoro-2-(((2R,7aS)-2-fluorotetrahydro-1H-pyrrolizin-7a(5H)-yl)methoxy-d2)pyrido[4,3-d]pyrimidin-4-yl)-8-fluoro-5-oxa-2-azabicyclo[5.1.0]octane-6,6-d2]
> 7.30 | [2H]C([2H])(F)Oc1c(F)ccc2cc(N)cc(-c3ncc4c(N5CCOC[C@H]6[C@H](F)[C@H]65)nc(OC[C@@]56CCCN5CC5(CC5)C6)nc4c3F)c12 [Example 200, 4-(2-(((S)-dihydro-1′H,3′H-spiro[cyclopropane-1,2′-pyrrolizin]-7a′(5′H)-yl)methoxy)-8-fluoro-4-((1S,7S,8S)-8-fluoro-5-oxa-2-azabicyclo[5.1.0]octan-2-yl)pyrido[4,3-d]pyrimidin-7-yl)-6-fluoro-5-(fluoromethoxy-d2)naphthalen-2-amine]
> 7.30 | [2H]c1cc(F)c(C#C)c2c(-c3ncc4c(N5CCOC[C@H]6[C@H](F)[C@H]65)nc(OC([2H])([2H])[C@@]56CCCN5C[C@H](F)C6)nc4c3F)cc(N)cc12 [Example 264, 5-ethynyl-6-fluoro-4-(8-fluoro-4-((1S,7S,8S)-8-fluoro-5-oxa-2-azabicyclo[5.1.0]octan-2-yl)-2-(((2R,7aS)-2-fluorotetrahydro-1H-pyrrolizin-7a(5H)-yl)methoxy-d2)pyrido[4,3-d]pyrimidin-7-yl)naphthalen-8-d-2-amine]
> 7.30 | [2H]c1cc2cc(N)cc(-c3ncc4c(N5CCOC[C@H]6[C@H](F)[C@H]65)nc(OC([2H])([2H])[C@@]56CCCN5C[C@H](F)C6)nc4c3F)c2c(C#C)c1F [Example 256, 5-ethynyl-6-fluoro-4-(8-fluoro-4-((1S,7S,8S)-8-fluoro-5-oxa-2-azabicyclo[5.1.0]octan-2-yl)-2-(((2R,7aS)-2-fluorotetrahydro-1H-pyrrolizin-7a(5H)-yl)methoxy-d2)pyrido[4,3-d]pyrimidin-7-yl)naphthalen-7-d-2-amine]

same assay, conditions: Homo sapiens, NCI-H441, cellular pERK HTRF, NCI-H441 (KRAS G12V) cells

pIC50 | Compound
> 7.30 | [2H]C([2H])(Oc1nc(N2CCOC[C@H]3[C@H](F)[C@H]32)c2cc(Cl)c(-c3ccc(F)c4sc(N)c(C#N)c34)c(C)c2n1)[C@@]12CCCN1C[C@H](F)C2 [Example 470, 2-amino-4-(6-chloro-4-((1S,7S,8S)-8-fluoro-5-oxa-2-azabicyclo[5.1.0]octan-2-yl)-2-(((2R,7aS)-2-fluorotetrahydro-1H-pyrrolizin-7a(5H)-yl)methoxy-d2)-8-methylquinazolin-7-yl)-7-fluorobenzo[b]thiophene-3-carbonitrile]

same assay, conditions: Homo sapiens, NCI-H441, pERK HTRF, NCI-H441 cells (KRAS G12V)

pIC50 | Compound
6.30 to 7.30 | [2H]C([2H])(Oc1nc(N2CCO[C@@H]3[C@@H](F)[C@@H]32)c2cnc(-c3cc(N)cc4cc(F)c(F)c(C#C)c34)c(F)c2n1)[C@@]12CCCN1C[C@H](F)C2 [Example 37, 5-Ethynyl-6,7-difluoro-4-(8-fluoro-4-((1S,6R,7S)-7-fluoro-2-oxa-5-azabicyclo[4.1.0]heptan-5-yl)-2-(((2R,7aS)-2-fluorotetrahydro-1H-pyrrolizin-7a(5H)-yl)methoxy-d2)pyrido[4,3-d]pyrimidin-7-yl)naphthalen-2-amine]
> 7.30 | [2H]C([2H])(Oc1nc(N2CCCC[C@H]3[C@H](F)[C@H]32)c2cnc(-c3cccc4cc(F)c(F)c(C#C)c34)c(F)c2n1)[C@@]12CCCN1C[C@H](F)C2 [Example 79, 7-(8-Ethynyl-6,7-difluoronaphthalen-1-yl)-8-fluoro-4-((1S,7R,8S)-8-fluoro-2-azabicyclo[5.1.0]octan-2-yl)-2-(((2R,7aS)-2-fluorotetrahydro-1H-pyrrolizin-7a(5H)-yl)methoxy-d2)pyrido[4,3-d]pyrimidine]
> 7.30 | [2H]C([2H])([2H])Oc1c(F)ccc2cccc(-c3ncc4c(N5CCOC[C@H]6[C@H](F)[C@H]65)nc(OC([2H])([2H])[C@@]56CCCN5C[C@H](F)C6)nc4c3F)c12 [Example 43, (1S,7S,8S)-8-Fluoro-2-(8-fluoro-7-(7-fluoro-8-(methoxy-d3)naphthalen-1-yl)-2-(((2R,7aS)-2-fluorotetrahydro-1H-pyrrolizin-7a(5H)-yl)methoxy-d2)pyrido[4,3-d]pyrimidin-4-yl)-5-oxa-2-azabicyclo[5.1.0]octane]

same assay, conditions: cellular pERK (Thr202/Tyr204) HTRF, NCI-H441 cells

pIC50 | Compound
5.00 to 6.30 | [2H]C([2H])(Oc1nc(N2CCOC[C@H]3[C@H](Cl)[C@H]32)c2cc(C(F)(F)F)c(-c3ccc(F)c4sc(N)c(C#N)c34)c(F)c2n1)[C@@]12CCCN1C[C@H](F)C2 (atropisomer, axis not shown; (aS)) [Example 418, 2-amino-4-((R)-4-((1S,7S,8S)-8-chloro-5-oxa-2-azabicyclo[5.1.0]octan-2-yl)-8-fluoro-2-(((2R,7aS)-2-fluorotetrahydro-1H-pyrrolizin-7a(5H)-yl)methoxy-d2)-6-(trifluoromethyl)quinazolin-7-yl)-7-fluorobenzo[b]thiophene-3-carbonitrile]

same assay, conditions: cellular pERK HTRF, NCI-H441 (KRAS G12V) cells

pIC50 | Compound
> 7.30 | [2H]C([2H])(Oc1nc(N2CCOC[C@H]3[C@H](F)[C@H]32)c2cc(F)c(-c3cc(O)cc4ccc(F)c(C#C)c34)c(F)c2n1)[C@@]12CCCN1C[C@H](F)C2 (atropisomer, axis not shown; (aS)) [Example 453, 4-((R)-6,8-difluoro-4-((1S,7S,8S)-8-fluoro-5-oxa-2-azabicyclo[5.1.0]octan-2-yl)-2-(((2R,7aS)-2-fluorotetrahydro-1H-pyrrolizin-7a(5H)-yl)methoxy-d2)quinazolin-7-yl)-5-ethynyl-6-fluoronaphthalen-2-ol]
